Results taken from patent US7026281B1, “Antagonistic analogs of GH-RH inhibiting IGF-I and -II” (The Administrators of the Tulane Educational Fund, priority 1998, dated 2006).
Marks after values point to notes of the source that are not given here. Square brackets hold non-standard residues; d marks the D form. Peptide text beside a SMILES is read from it. * marks the point of attachment. Phe(4-Cl) = N[C@@H](Cc1ccc(Cl)cc1)C(=O)O; hArg = N=C(N)NCCCC[C@H](N)C(=O)O; Nle = CCCC[C@H](N)C(=O)O; Abu = CC[C@H](N)C(=O)O; PhAc = O=C(Cc1ccccc1)*

Tests used:
[1] = tested on: GH release stimulated by hGH-RH(1–29)NH2; test: In vivo inhibition of serum GH response in rats; set-up: species or system rat; conditions: for Inhibition of the GH release stimulated by hGH-RH(1–29)NH2 (in words): 80 μg/kg i.v., rats
In short: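 Male Sprague-Dawley rats (200–250 g) under Nembutal received antagonist at 80 μg/kg i.v., then GH-RH(1–29)NH2 at 3 μg/kg after 5, 15, 30 or 60 min; controls received vehicle (5.5% mannitol). GH was measured by RIA before antagonist and 5 min after GH-RH, and inhibition was calculated as […].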

[2] = tested on: hGH-RH(1–29)NH2 induced GH release; test: Inhibition of GH release in superfused rat pituitary system; format: cell-based; conditions: antagonist 30 nM; for Inhibition of GH release (%) 30 min: 1 nM hGH-RH(1–29)NH2 30 min later; for Inhibition of GH release (%) 60 min: 1 nM hGH-RH(1–29)NH2 60 min later; for Inhibition of GH release (%) 90 min: 1 nM hGH-RH(1–29)NH2 90 min later; for Inhibition of GH release (%) 120 min: 1 nM hGH-RH(1–29)NH2 120 min later; for Inhibition of GH release (%) 0 min: 1 nM hGH-RH(1–29)NH2 at 0 min
In short: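 Superfused rat pituitary cells preincubated 9 min with peptide, then challenged for 3 min with 1 nM hGH-RH(1–29)NH2 at 0, 30, 60, 90 and 120 min. Rat GH measured by double-antibody RIA; net integral GH responses expressed as percent of the original 1 nM GH-RH-induced response.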

[3] = biological target: T1, rat pituitary GH-RH receptors (Rattus norvegicus, UniProt Q02644); test: GH-RH radioreceptor binding assay, rat anterior pituitary membrane homogenates; conditions: for Ki: competition with [His1,125I-Tyr10,Nle27]hGH-RH(1–32)NH2; for R.A. (relative affinity compared to Standard antagonist): ratio of Ki values
T1 construct: from tissue; host or cells: anterior pituitary of male Sprague-Dawley rats, crude membrane homogenates
T1 sequence (Q02644 23-464): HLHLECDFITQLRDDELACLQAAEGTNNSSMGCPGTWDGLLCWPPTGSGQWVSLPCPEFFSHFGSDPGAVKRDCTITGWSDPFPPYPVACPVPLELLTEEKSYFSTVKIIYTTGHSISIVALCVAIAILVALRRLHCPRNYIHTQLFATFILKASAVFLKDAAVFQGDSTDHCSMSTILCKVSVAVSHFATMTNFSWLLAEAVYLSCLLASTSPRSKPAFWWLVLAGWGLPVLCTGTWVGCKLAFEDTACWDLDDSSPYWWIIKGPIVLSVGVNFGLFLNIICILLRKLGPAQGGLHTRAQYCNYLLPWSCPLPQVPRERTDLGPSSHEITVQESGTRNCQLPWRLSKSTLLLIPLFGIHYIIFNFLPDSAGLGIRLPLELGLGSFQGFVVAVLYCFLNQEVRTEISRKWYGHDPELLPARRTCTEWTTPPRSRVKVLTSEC
In short: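 Antagonists competed with [His^1,^125I-Tyr^10,Nle^27]hGH-RH(1–32)NH2 for binding to crude anterior pituitary membranes from male Sprague-Dawley rats, with γ-counting of the pellet. Ki came from Munson–Rodbard analysis. Relative affinity is the Ki of the test antagonist divided by the Ki of standard [Ac-Tyr^1,D-Arg^2]hGH-RH(1–29)NH2.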

[4] = tested on: HT-29 human colon cancers; test: HT-29 human colon cancer xenografts in nude mice; format: in vivo; conditions: 20 μg daily sc., 6 weeks; for Final tumor volume (mm^3) / Tumor weight: nude mice
Experimental: HT-29 human colon cancers were transplanted sc. into male nude mice. 19 days after transplantation, the mice were divided into groups of 10 animals each, and the treatment was started. The mice received single daily injections of various GH-RH antagonists sc. at 20 μg dose per day for 6 weeks. Tumors were measured regularly, and tumor volume was calculated. The mice were sacrificed at the end of experiment and tumor weights were measured.

[5] = tested on: mammary (MDA-MB-468, ZR-75-1), prostatic (PC-3 and DU-145), and pancreatic (MiaPaCa-2, SW-1990 and Capan-2) cancer cell lines; conditions: MDA-MB-468, ZR-75-1, PC-3, DU-145, MiaPaCa-2, SW-1990, Capan-2; cited from earlier work
[6] = tested on: IGF-II; conditions: same cancer cell lines in vitro; cited from earlier work
[7] = antagonist 80 μg/kg i.v. 5 min before GH-RH
[8] = antagonist 80 μg/kg i.v. 15 min before GH-RH
[9] = antagonist 80 μg/kg i.v. 15 min before GH-RH 3 μg/kg
[10] = antagonist 80 μg/kg i.v. 30 min before GH-RH
[11] = antagonist 80 μg/kg i.v. 30 min before GH-RH 3 μg/kg
[12] = antagonist 80 μg/kg i.v. 60 min before GH-RH
[13] = antagonist 80 μg/kg i.v. 60 min before GH-RH 3 μg/kg
[14] = rGH=GHblood1/GHblood0, antagonist 80 μg/kg i.v. 5 min before GH-RH 3 μg/kg

| Compound | Inhibition of the GH release stimulated by hGH-RH(1–29)NH2 (in words) [1] | Relative inhibition % of GH response [1, 7] | Relative inhibition % of GH response [1, 8] | GH response mean ± S.E.M. [1, 9] | Relative inhibition % of GH response [1, 10] | GH response mean ± S.E.M. [1, 11] | Relative inhibition % of GH response [1, 12] | GH response mean ± S.E.M. [1, 13] | GH response mean ± S.E.M. [1, 14] | Inhibition of GH release (%) 30 min [2] | Inhibition of GH release (%) 60 min [2] | Inhibition of GH release (%) 90 min [2] | Inhibition of GH release (%) 120 min [2] | Inhibition of GH release (%) 0 min [2] | Ki [3] | R.A. (relative affinity compared to Standard antagonist) [3] | Inhibitory effect on HT-29 human colon cancers (in words) [4] | Final tumor volume (mm^3) [4] | Tumor weight [4] | further results |
| --- | --- | --- | --- | --- | --- | --- | --- | --- | --- | --- | --- | --- | --- | --- | --- | --- | --- | --- | --- | --- |
| CCCC[C@H](NC(=O)[C@@H](NC(=O)[C@H](CC(=O)O)NC(=O)[C@H](CCC(N)=O)NC(=O)[C@H](CC(C)C)NC(=O)[C@H](CC(C)C)NC(=O)[C@H](CCCCN)NC(=O)[C@H](CCCNC(=N)N)NC(=O)[C@H](C)NC(=O)[C@H](CO)NC(=O)[C@H](CC(C)C)NC(=O)[C@H](CCC(N)=O)NC(=O)[C@H](CC)NC(=O)[C@H](CC(C)C)NC(=O)[C@@H](NC(=O)[C@H](CCCCN)NC(=O)[C@H](CCCNC(=N)N)NC(=O)[C@H](Cc1ccc(O)cc1)NC(=O)[C@H](CCCNC(=N)N)NC(=O)[C@H](CC(N)=O)NC(=O)[C@@H](NC(=O)[C@H](Cc1ccc(Cl)cc1)NC(=O)[C@@H](NC(=O)[C@H](C)NC(=O)[C@H](CC(=O)O)NC(=O)[C@@H](CCCNC(=N)N)NC(=O)[C@H](Cc1ccc(O)cc1)NC(=O)Cc1ccccc1)[C@@H](C)CC)[C@@H](C)O)C(C)C)[C@@H](C)CC)C(=O)N[C@@H](CO)C(=O)N[C@H](CCCNC(=N)N)C(N)=O [Peptide 9, [PhAc^0, D-Arg^2, Phe(pCl)^6, Arg^9, Abu^15, Nle^27, D-Arg^29]hGH-RH(1–29)NH2] (PhAc-Y[dR]DAI[Phe(4-Cl)]TNRYRKVL[Abu]QLSARKLLQDI[Nle]S[dR]-NH2) | strong and long-lasting inhibition | 75% | 59% | 3.85 ± 0.50 | 67% | 3.34 ± 0.30 | 10% | 7.32 ± 1.16 | 2.75 ± 0.75 | 87% | 79% | 72% | 59% | 91% | 0.058 nM | 51 | smaller but still significant inhibition | 1194 ± 506* mm^3 | 1383 ± 576 mg |  |
| CCCC[C@H](NC(=O)[C@@H](NC(=O)[C@H](CC(=O)O)NC(=O)[C@H](CCC(N)=O)NC(=O)[C@H](CC(C)C)NC(=O)[C@H](CC(C)C)NC(=O)[C@H](CCCCN)NC(=O)[C@H](CCCNC(=N)N)NC(=O)[C@H](C)NC(=O)[C@H](CO)NC(=O)[C@H](CC(C)C)NC(=O)[C@H](CCC(N)=O)NC(=O)[C@H](CC)NC(=O)[C@H](CC(C)C)NC(=O)[C@@H](NC(=O)[C@H](CCCCN)NC(=O)[C@H](CCCNC(=N)N)NC(=O)[C@H](Cc1ccc(O)cc1)NC(=O)[C@H](CO)NC(=O)[C@H](CC(N)=O)NC(=O)[C@@H](NC(=O)[C@H](Cc1ccc(Cl)cc1)NC(=O)[C@@H](NC(=O)[C@H](C)NC(=O)[C@H](CC(=O)O)NC(=O)[C@@H](CCCNC(=N)N)NC(=O)[C@H](Cc1ccc(O)cc1)NC(=O)Cc1ccccc1)[C@@H](C)CC)[C@@H](C)O)C(C)C)[C@@H](C)CC)C(=O)N[C@H](CCCNC(=N)N)C(=O)N[C@@H](CCCCNC(=N)N)C(N)=O [Peptide 11, [PhAc^0, D-Arg^2, Phe(pCl)^6, Abu^15, Nle^27, D-Arg^28, Har^29]hGH-RH(1–29)NH2] (PhAc-Y[dR]DAI[Phe(4-Cl)]TNSYRKVL[Abu]QLSARKLLQDI[Nle][dR][hArg]-NH2) | strong and long-lasting inhibition | 84% | 50% | 13.64 ± 1.41 | 40% | 16.04 ± 4.36 | 38% | 16.61 ± 6.02 | 5.15 ± 1.11 | 89% | 80% | 56% | 42% | 96% | 0.071 nM | 41 | only little nonsignificant effect | 1663 ± 610 mm^3 | 1849 ± 681 mg |  |
| [Ibu^0, Tyr^1, D-Arg^2, Abu^15, Nle^27]hGH-RH(1–28) Agm [MZ-4-71, reference compound] |  |  |  |  |  |  |  |  |  |  |  |  |  |  |  |  | only little nonsignificant effect | 1953 ± 400 mm^3 | 2189 ± 458 mg | Rate of proliferation of cancer cell lines in vitro [5]: significantly inhibited; Expression of IGF-II mRNA in the cells and concentration of IGF-II secreted into the culture medium [6]: reduced |
